Patent US5143906A, “Kedarcidin antitumor chromophore and pharmaceutical composition containing same” (Bristol-Myers Squibb Company, priority 1991, dated 1992)
In brackets after ≈: the same amount, converted by molar mass. Entries after “also recorded” stand apart in the source; their conditions may differ.

Experiments:
Stability in solution = format: physicochemical
[1] = tested on: A2780/DDP drug resistant cell line; assay: In vitro cytotoxicity assay (XTT), A2780/DDP; format: cell-based, human
Method: (§1) The A2780/DDP cell line is reported to be resistant through enhanced DNA repair mechanisms and elevated GSH/GST levels. Cells were cultured in McCoy's media and 10% fetal bovine serum. When in log phase growth, 4×10^3 cells/well were plated into 96 well microtiter plates and incubated at 37° C. in […] /5% CO2 for 24 hours to allow cell attachment. Compounds were added to the top row of wells, serially diluted (4 fold dilutions) and incubated for an additional 72 hours. The number of viable cells in each well was then quantitated as previously described^2 by adding 0.05 mg/ml final concentration tetrazolium stain (XTT) in the presence of 0.005 mM final concentration phenazine methosulfate. After incubation at room temperature for 3 hours to allow color development, optical density values were measured using a Dynatech MR600 plate reader at […]. IC50 values (drug concentration inhibiting cell growth by 50%) were calculated using linear regression analysis of the optical density readings. Triplicate determinations on separate 96 well plates were done for each drug on each cell line tested.

[2] = tested on: ip implanted P388 leukemia; assay: Antitumor activity against ip implanted P388 leukemia; format: in vivo, murine (CDF1 mice)
Source text: (§2) The P388 tumor was maintained in ascitic form in DBA/2 mice. Experimental tumor models used CDF^1 mice implanted via the intraperitoneal or intravenous route with 1×10^6 leukemia cells on day 0 and dosed with drugs according to the indicated route and schedule. Mice were weighed on day 0 and on day 5 or 6. Weight loss of 20% or greater was an indicator of drug toxicity. Each dose group consisted of 6 mice with 10 mice in the untreated control group. The dosing schedule was Q1DX1;1. Death checks were performed daily and the median life span of each group determined. […] Experiments were terminated on or about day 30.

[3] = tested on: HCT116/VP35 drug resistant cell line; assay: In vitro cytotoxicity assay (XTT), HCT116/VP35; format: cell-based, human
Method: as §1

[4] = tested on: sc implanted B16 melanoma; assay: Antitumor activity against sc implanted B16 melanoma; format: in vivo, murine (BDF1 mice); details: for % T/C / Av. wgt. change / Med. surv. time / No. of mice alive on d 5: iv
Method: The B-16 murine melanoma was maintained as a subcutaneous growing tumor in C57BL/6 mice. Experimental tumor models used BDF^1 mice implanted with a 25 mg tumor fragment implanted subcutaneously via trochar on day 0. Kedarcidin chromophore was administered iv on a Q1DX1;1 schedule. Mice were weighed on day 0 and on day 9.

[5] = tested on: human colon adenocarcinoma HCT116 drug sensitive line; assay: In vitro cytotoxicity assay (XTT), HCT116; format: cell-based
Method: as §1

[6] = tested on: several human tumor cell lines; assay: In vitro cytotoxicity assay, several human tumor cell lines (summary); format: cell-based
Source text: as §1, with “The cell lines used to evaluate in vitro cytotoxic potency include the human colon adenocarcinoma HCT116 drug sensitive line, HCT 116/VP35 and HCT116/VM46 daughter drug resistant cell lines that have low Topoisomerase II and elevated P-170 glycoprotein levels^1; respectively, and the human ovarian carcinoma A2780 drug sensitive and the A2780/DDP daughter drug resistant cell line. The A2780/DDP” for “The A2780/DDP”, “density readings. […]” for “density readings. Triplicate determinations on separate 96 well plates were done for each drug on each cell line tested.”

P388 murine leukemia = P388 murine leukemia models, ip and iv implanted (summary); format: in vivo, murine (CDF1 mice)
Source text: as §2

COc1c(OC(C)C)cc2cc(O)c(C(=O)N[C@@H]3CC(=O)OC[C@@H](O[C@H]4C[C@H](O)[C@H](N(C)C)[C@H](C)O4)/C4=C/C#C[C@@H]5O[C@]56C(=C[C@H](Oc5ccc3nc5Cl)[C@@H]6O[C@H]3C[C@@](C)(O)[C@@H](O)[C@H](C)O3)C#C4)cc2c1OC [Kedarcidin chromophore]
Stability (Stability in solution): Very unstable
Decomposition in solution (Stability in solution; in solution with benzene, methanol, chloroform and DMSO): Decomposes within hours
fold less potent on the resistant cell line compared to the sensitive cell line ([1]; A2780/DDP vs A2780, 4320 min): about 6.6 fold
IC50 ([1]; A2780/DDP, 72 h, VP-16 values: mean of triplicate determinations from last 6 experiments): 1.3 ng/mL (≈ 1.26 nM)
% T/C ([2]; Exp. 8305, 0.125 mg/kg/dose): 145%
Av. wgt. change ([2]; Exp. 8305, 0.125 mg/kg/dose): 0.1 g
Med. surv. time ([2]; Exp. 8305, 0.125 mg/kg/dose): 14.5
No. of mice alive on d 5 ([2]; Exp. 8305, 0.125 mg/kg/dose): 6/6
% T/C ([2]; Exp. 8305, 0.25 mg/kg/dose): 150%
Av. wgt. change ([2]; Exp. 8305, 0.25 mg/kg/dose): -0.4 g
Med. surv. time ([2]; Exp. 8305, 0.25 mg/kg/dose): 15.0
No. of mice alive on d 5 ([2]; Exp. 8305, 0.25 mg/kg/dose): 6/6
% T/C ([2]; Exp. 8305, 0.5 mg/kg/dose): 165%
Av. wgt. change ([2]; Exp. 8305, 0.5 mg/kg/dose): -0.5 g
Med. surv. time ([2]; Exp. 8305, 0.5 mg/kg/dose): 16.5
No. of mice alive on d 5 ([2]; Exp. 8305, 0.5 mg/kg/dose): 6/6
% T/C ([2]; Exp. 8305, 1 mg/kg/dose): 175%
Av. wgt. change ([2]; Exp. 8305, 1 mg/kg/dose): -0.3 g
Med. surv. time ([2]; Exp. 8305, 1 mg/kg/dose): 17.5
No. of mice alive on d 5 ([2]; Exp. 8305, 1 mg/kg/dose): 6/6
% T/C ([2]; Exp. 8305, 2 mg/kg/dose): 105%
Av. wgt. change ([2]; Exp. 8305, 2 mg/kg/dose): -2.2 g
Med. surv. time ([2]; Exp. 8305, 2 mg/kg/dose): 10.5
No. of mice alive on d 5 ([2]; Exp. 8305, 2 mg/kg/dose): 6/6
% T/C ([2]; Exp. 8305, 4 mg/kg/dose): 90%
Av. wgt. change ([2]; Exp. 8305, 4 mg/kg/dose): -3.6 g
Med. surv. time ([2]; Exp. 8305, 4 mg/kg/dose): 9.0
No. of mice alive on d 5 ([2]; Exp. 8305, 4 mg/kg/dose): 6/6
optimal dose ([2]; Exp. 8305, ip one day after tumor implant): 1 mg/kg/inj
% T/C ([2]; Exp. 8328, 0.25 mg/kg/dose): 185%
Av. wgt. change ([2]; Exp. 8328, 0.25 mg/kg/dose): -0.4 g
Med. surv. time ([2]; Exp. 8328, 0.25 mg/kg/dose): 18.5
No. of mice alive on d 5 ([2]; Exp. 8328, 0.25 mg/kg/dose): 6/6
% T/C ([2]; Exp. 8328, 0.5 mg/kg/dose): 130%
Av. wgt. change ([2]; Exp. 8328, 0.5 mg/kg/dose): -1.1 g
Med. surv. time ([2]; Exp. 8328, 0.5 mg/kg/dose): 13.0
No. of mice alive on d 5 ([2]; Exp. 8328, 0.5 mg/kg/dose): 6/6
% T/C ([2]; Exp. 8328, 1.0 mg/kg/dose): 90%
Av. wgt. change ([2]; Exp. 8328, 1.0 mg/kg/dose): -2.3 g
Med. surv. time ([2]; Exp. 8328, 1.0 mg/kg/dose): 9.0
No. of mice alive on d 5 ([2]; Exp. 8328, 1.0 mg/kg/dose): 6/6
% T/C ([2]; Exp. 8328, 2.0 mg/kg/dose): TOX
Av. wgt. change ([2]; Exp. 8328, 2.0 mg/kg/dose): -1.9 g
Med. surv. time ([2]; Exp. 8328, 2.0 mg/kg/dose): TOX
No. of mice alive on d 5 ([2]; Exp. 8328, 2.0 mg/kg/dose): 2/6
optimal dose ([2]; Exp. 8328, ip, Q1DX1;1): 0.25 mg/kg/inj
cross-resistance with VP-16 ([3]; HCT116/VP35): not cross-resistant
IC50 ([3]; HCT116/VP35, 72 h, VP-16 values: mean of triplicate determinations from last 6 experiments): 0.3 ng/mL (≈ 0.291 nM)
activity by the lifespan criterion ([4]; Exp. 796): active by the lifespan criterion
activity by the tumor growth delay criterion ([4]; Exp. 796): Neither kedarcidin chromophore or kedarcidin were active
optimum dose ([4]; Exp. 796, iv one day after tumor implant): 0.062 mg/kg/inj
% T/C ([4]; Exp. 796, 0.062 mg/kg/dose): 164%
Av. wgt. change ([4]; Exp. 796, 0.062 mg/kg/dose): 1.1 g
Med. surv. time ([4]; Exp. 796, 0.062 mg/kg/dose): 41.0
No. of mice alive on d 5 ([4]; Exp. 796, 0.062 mg/kg/dose): 8/8
% T/C ([4]; Exp. 796, 0.125 mg/kg/dose): 126%
Av. wgt. change ([4]; Exp. 796, 0.125 mg/kg/dose): 1.1 g
Med. surv. time ([4]; Exp. 796, 0.125 mg/kg/dose): 31.5
No. of mice alive on d 5 ([4]; Exp. 796, 0.125 mg/kg/dose): 8/8
% T/C ([4]; Exp. 796, 0.25 mg/kg/dose): TOX
Av. wgt. change ([4]; Exp. 796, 0.25 mg/kg/dose): -1.0 g
Med. surv. time ([4]; Exp. 796, 0.25 mg/kg/dose): TOX
No. of mice alive on d 5 ([4]; Exp. 796, 0.25 mg/kg/dose): 2/8
% T/C ([4]; Exp. 796, 0.5 mg/kg/dose): TOX
Med. surv. time ([4]; Exp. 796, 0.5 mg/kg/dose): TOX
No. of mice alive on d 5 ([4]; Exp. 796, 0.5 mg/kg/dose): 0/8
activity and potency compared to kedarcidin ([4]; conclusion, compared directly): as active as, and slightly more potent than, kedarcidin
antitumor activity by lifespan criterion ([4]; sc implanted B16, conclusion): significant antitumor activity; also recorded: in vivo antitumor activity
IC50 ([5]; HCT116, 72 h, VP-16 values: mean of triplicate determinations from last 6 experiments): 0.4 ng/mL (≈ 0.388 nM)
fold more potent than VP-16 ([5]; VP-16 sensitive cell line (HCT116)): 1725 fold
ability to inhibit cell growth ([6]; compared to VP-16): extremely potent
antitumor in vitro activity ([6]; several human tumor cell lines): potent antitumor in vitro activity
efficacy and potency compared to kedarcidin (P388 murine leukemia; P388 model): as efficacious as, and slightly more potent than, kedarcidin; also recorded: as active as, and slightly more potent than, kedarcidin
antitumor activity in P388 models (P388 murine leukemia; ip, ip or iv, iv model): both potent and efficacious; also recorded: significant antitumor activity; also recorded: in vivo antitumor activity
